Laboratory results as given in BindingDB's records for patent US11130748 (Mission Therapeutics, 2021).

Target: T1, Ubiquitin carboxyl-terminal hydrolase 30 (Homo sapiens, UniProt Q70CQ3)
T1 sequence (Q70CQ3 whole entry): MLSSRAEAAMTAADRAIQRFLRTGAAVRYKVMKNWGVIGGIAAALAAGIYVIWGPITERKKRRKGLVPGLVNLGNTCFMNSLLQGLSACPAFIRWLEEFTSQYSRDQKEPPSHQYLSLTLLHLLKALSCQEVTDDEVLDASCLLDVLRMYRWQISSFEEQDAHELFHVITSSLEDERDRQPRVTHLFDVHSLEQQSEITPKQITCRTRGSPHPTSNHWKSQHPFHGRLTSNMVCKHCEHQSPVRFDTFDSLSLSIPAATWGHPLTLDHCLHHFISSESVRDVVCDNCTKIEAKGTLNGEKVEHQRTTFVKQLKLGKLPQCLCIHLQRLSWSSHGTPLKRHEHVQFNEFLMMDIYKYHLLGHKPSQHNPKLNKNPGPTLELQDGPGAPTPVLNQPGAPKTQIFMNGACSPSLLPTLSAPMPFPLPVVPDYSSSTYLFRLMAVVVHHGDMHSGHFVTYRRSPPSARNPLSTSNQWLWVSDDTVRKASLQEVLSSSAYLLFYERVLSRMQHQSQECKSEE
Test: Biochemical Assay
Description: Dilution plates were prepared at 21 times the final concentration (2100 μM for a final concentration of 100 μM) in 50% DMSO in a 96-well polypropylene V-bottom plate (Greiner #651201). A typical 8-point dilution series to be 100, 30, 10, 3, 1, 0.3, 0.1, 0.03 μM final. Reactions were performed in duplicate in black 384 well plates (small volume, Greiner 784076) in a final reaction volume of 21 μl. Either 1 μl of 50% DMSO or diluted compound was added to the plate. USP30 was diluted in reaction buffer (40 mM Tris, pH 7.5, 0.005% Tween 20, 0.5 mg/ml BSA, 5 mM beta-mercaptoethanol) to the equivalent of 0.05 μl/well and 10 μl of diluted USP30 was added to the compound. Enzyme and compound were incubated for 30 min at room temp. Reactions were initiated by the addition of 50 nM of TAMRA labelled peptide linked to ubiquitin via an iso-peptide bond as fluorescence polarisation substrate. Reactions were read immediately after addition of substrate and following a 2 hr incubation at room temperature. Readings were performed on a Pherastar Plus (BMG Labtech). λ Excitation 540 nm; λ Emission 590 nm.

IC50: in the range around 550 nM
SMILES: N#CN1CC[C@H](CNC(=O)c2ncc(-c3ccccc3)s2)C1 [US11130748, Example 61]
